Measurements published in US20230364069A1, “METHOD FOR TREATING NON-ALCOHOLIC STEATOHEPATITIS THROUGH CO-ADMINISTRATION OF CURCUMIN DERIVATIVE AND TGF-B RECEPTOR INHIBITOR” (UNIVERSITY INDUSTRY FOUNDATION, YONSEI UNIVERSITY WONJU …, priority 2021, published 2023).

Legend:
[1] = test system: AML12 cells (mouse hepatocyte cell lines); test: Cytotoxicity of curcumin derivatives (MTT) with TGF-β treatment; type: cell-based; settings: 2 ng/ml TGF-β; at concentrations other than 0.1 μM (1, 3, 5 μM); FIG. 1
Method: Cell experiments were performed by using AML12, […], and LX-2 cells, a human hepatic stellate cell.
AML12 cells were cultured in a culture medium made by adding 5 ml of insulin (ITS), 40 ng/ml of dexamethasone, 1% penicillin streptomycin (anti-anti), and 10% fetal bovine serum (FBS) to F-12 media (Corning Incorporated, USA, Arizona), a mixture of a DMEM medium and Ham's F-12 at a ratio of 50:50, which is used for culturing hepatocytes or prostate epithelial cells.
In order to confirm cytotoxicity, the cells of Example 1-1 were treated with 2 ng/ml of TGF-β, and then with curcumin (CUR), curcumin 5-8 (CURS-8), curcumin 4-8 (CUR4-8), and curcumin 5-14 (CURS-14) at 0.1, 1, 3, and 5 μM, respectively, for the same period of time. Thereafter, cells cultured in an incubator of 5% CO2 at 37° C. were stained with a tetrazolium dye capable of staining surviving cells (MTT), and absorbance was measured by using a spectrophotometer.
By a method described in Example 1-2, the numbers of surviving cells when curcumin (CUR) and curcumin derivatives (CUR5-8, CUR4-8, and CUR5-14) each were co-administered with TGF-β at respective concentrations were measured.

[2] = test system: mouse hepatocyte cell lines (AML12); test: TGF-β-induced fibrosis, co-administration of curcumin derivative and EW-7197 (epithelial-mesenchymal conversion, BODIPY, α-SMA staining, Western blotting); type: cell-based; settings: 2 ng/ml TGF-β, 24 hours, 1 μM Cur or Cur5-8, 10 μM EW-7197
Method: Fibrosis was induced in hepatocytes with TGF-β, a curcumin derivative and a TGF-β receptor inhibitor were co-administered, and then fibrosis and fat synthesis and degradation were checked.
Specifically, 2 ng/ml of TGF-β was administered to the cells of Example 1-1, the cells were divided into administration groups of vehicle (Veh), 1 μM curcumin (Cur), 1 μM curcumin 5-8 (Cur5-8), 0.5 μM EW-7197 (EW0.5), 10 μM EW-7197 (EW or EW10), 1 μM curcumin and 0.5 μM EW-7197 (EW0.5+Cur), 1 μM curcumin and 10 μM EW-7197 (EW+Cur or EW10+Cur), 1 μM curcumin 5-8 and 0.5 μM EW-7197 (EW0.5+Cur5-8), 1 μM curcumin 5-8 and 10 μM EW-7197 (EW+Cur5-8 or EW10+Cur5-8), respective samples were administered, and culturing was performed for 24 hours. The control group (Con) was not treated with either TGF-β or the sample. […] After washing with PBS 1×, stained cells were observed.
In addition, in order to check the degree of fibrosis of hepatocytes, the cells cultured for 24 hours were fixed with 4% paraformaldehyde and then stained by using α-SMA (Santa Cruz Biotechnology, Inc., Dallas, Texas, USA), an Alexafluor 488 (Cell Signaling Technology, Danvers, Massachusetts, USA) antibody, and DAPI (Abcam plc., Cambridge, MA, USA). The cells were mounted with a mounting solution (Fisher Scientific, Hampton, Rockingham, USA), the manufactured sample was photographed using a confocal microscope to obtain photographs of stained cells, and the degree of color development in the photographs of the stained cells was analyzed with the ImageJ program.
In addition, in order to confirm the degree of fibrosis of hepatocytes, the cells cultured for 24 hours were collected, and protein expressions of α-SMA, Collagen I (Coll), p-SMAD2, and p-SMAD3 were checked by Western blotting with fibrosis markers in the same method as described in <Example 1-3>.
In order to check a synergistic effect of inhibiting fibrosis caused by a TGF-β and inhibiting fat accumulation caused thereby in case of co-administration of a curcumin derivative (Cur5-8) and a TGF-β receptor inhibitor (EW-7197), epithelial-mesenchymal conversion of hepatocytes was confirmed through a cell experiment by the method described in Example 1-5, and BODIPY staining and α-SMA staining were performed. Also, protein expressions of α-SMA, Collagen I p-SMAD2, and p-SMAD3 were checked by Western blotting.

Structure (SMILES)	cytotoxicity (MTT) [1]	epithelial-mesenchymal conversion caused by TGF-β ([2]; FIG. 8)	liver fibrosis (α-SMA staining, fibrosis marker Western blotting) ([2]; FIGS. 8, 10, 11)
COc1cc(C#Cc2cncc(C#Cc3ccc(O)c(OC)c3)c2)ccc1O [Cur4-8, 4,4′-(3,5-Pyridinediyldi-2,1-ethynediyl)bis(2-methoxyphenol)]	cytotoxicity was high	–	–
COc1cc(/C=C/C(=O)CC(=O)/C=C/c2ccc(O)c(OC)c2)ccc1O [Cur, curcumin]	–	not inhibited	liver fibrosis was induced
